# Measurements as given in patent publication US20130131008A1, “LIPOPHILIC MONOPHOSPHORYLATED DERIVATIVES AND NANOPARTICLES” (BOARD OF REGENTS, THE UNIVERSITY OF TEXAS SYSTEM, priority 2011, published 2013).
# How the values were obtained:
# CCRF-CEM-AraC-8C cells = assay: In vitro cytotoxicity assay (MTT), 72 h, hENT1 deficient cells; type: cell-based, human; settings: for IC50: MTT, 72 h incubation, hENT1 deficient
# Excerpt: (§1) Human leukemia cell line CCRF-CEM (CCL-119), human pancreatic cancer cell lines PANC-1 (CRL-1469), MIA PaCa-2 (CRL-1420), and BxPC-3 (CRL-1687), human breast adenocarcinoma cell line MCF-7 (HTB-22), and mouse lung cancer cell line TC-1 (CRL-2785) were from the American Type Culture Collection (Rockville, Md.). CCRF-CEM-AraC-8C cells (hENT1 deficient) and CCRF-CEM/dCK^−/− cells (dCK deficient) were kindly provided by Dr. Buddy Ullmann (Oregon Health & Science University, Portland, Oreg.) and Dr. Margaret Black (Washington State University, Pullman, Wash.), respectively. L1210 wt and L1210 10K were kindly supplied by Dr. Lars Petter Jordheim (Université Claude Bernard Lyon I, Lyon, France). TC-1-GR cells were previously developed in our lab. CCRF-CEM, CCRF-CEM-AraC-8C, CCRF-CEM/dCK^−/−, L1210 wt, L1210 10K, TC-1, and TC-1-GR cells were cultured in RPMI 1640 medium. MCF-7 and PANC-1 cells were cultured in Dulbecco's modified Eagle medium (DMEM), MIA PaCa-2 cells were cultured in DMEM medium with 2.5% horse serum. All media were supplemented with 10% fetal bovine serum (FBS), 100 U/mL of penicillin, and 100 μg/mL of streptomycin (all from Invitrogen, Carlsbad, Calif.).
# (§2) Cells (5,000/well) were seeded in 96-well plates. After overnight incubation, they were treated with various concentrations of gemcitabine HCl, gemcitabine derivatives, or gemcitabine derivatives in nanoparticles at 37° C., 5% CO2. TC-1 and TC-1-GR cells were incubated for 48 h. CCRF-CEM, CCRF-CEM-AraC-8C, CCRF-CEM/dCK^−/−, L1210 wt, L1210 10K, and MCF-7 cells were incubated for 72 h, and MIA PaCa-2 and PANC-1 for 96 h. Gemcitabine HCl was dissolved in phosphate-buffered saline (PBS), and gemcitabine derivatives were dissolved in dimethyl sulfoxide (DMSO). […] The number of viable cells after the incubation was determined using an MTT assay. Briefly, 3-(4,5-dimethylthiazol-2-yl)-2,5-diphenyltetrazolium bromide (20 μl, 5 mg/mL) was added in each well and incubated for 3 h. Formazan crystals were solubilized with acidified isopropanol (150 μl) (for CCRF-CEM, CCRF-CEM-AraC-8C, CCRF-CEM/dCK^−/−, L1210 wt, and L1210 10K cells) or DMSO (150 μl) (for TC-1, TC-1-GR, MCF-7, PANC-1, and MIA PaCa-2). Absorbance was measured using a BioTek Synergy™ HT Multi-Mode Microplate Reader (BioTek Instruments, Winooski, Vt.) at 570 nm and 630 nm. The fraction of affected (dead) cells (Fa) and the fraction of unaffected (live) cells (Fu) at every dose were calculated, and the Log(Fa/Fu) values were plotted against the Log(concentration of gemcitabine). IC50 was the dose at Log(Fa/Fu)=0, See e.g., Chou, T. C. & Talalay, P., 1984, Adv. Enzyme Regul. 22:27-55. The experiment was repeated at least three times.
# CCRF-CEM/dCK−/− cells = assay: In vitro cytotoxicity assay (MTT), 72 h, dCK deficient cells; type: cell-based, human; settings: MTT, 72 h incubation; dCK deficient
# Excerpt: as §1
# Cells (5,000/well) were seeded in 96-well plates. After overnight incubation, they were treated with various concentrations of gemcitabine HCl, gemcitabine derivatives, or gemcitabine derivatives in nanoparticles at 37° C., 5% CO2. TC-1 and TC-1-GR cells were incubated for 48 h. CCRF-CEM, CCRF-CEM-AraC-8C, CCRF-CEM/dCK^−/−, L1210 wt, L1210 10K, and MCF-7 cells were incubated for 72 h, and MIA PaCa-2 and PANC-1 for 96 h. […] The number of viable cells after the incubation was determined using an MTT assay. […] Absorbance was measured using a BioTek Synergy™ HT Multi-Mode Microplate Reader (BioTek Instruments, Winooski, Vt.) at 570 nm and 630 nm. The fraction of affected (dead) cells (Fa) and the fraction of unaffected (live) cells (Fu) at every dose were calculated, and the Log(Fa/Fu) values were plotted against the Log(concentration of gemcitabine). […]
# TC-1 cells = assay: In vitro cytotoxicity assay (MTT), 48 h; type: cell-based; settings: 48 h incubation
# Excerpt: as §1, §2
# MIA PaCa-2 cells = assay: In vitro cytotoxicity assay (MTT), 96 h; type: cell-based, human; settings: 96 h incubation
# Excerpt: as §1, §2
# TC-1-GR cells = assay: cells; type: cell-based; settings: for IC50: MTT, 48 h incubation, RRM1 over-expressing
# Excerpt: as §1, §2
# B16-F10 melanoma tumor = assay: Antitumor activity of GemC18/PEG-C18 micelles in mice with B16-F10 tumors (Example 20); type: in vivo, mouse; settings: C57BL/6 mice, tail vein injection, 0.283 mg GemHCl or molar equivalent GemC18; 2 doses (micelles 3 doses), 3 days apart
# Procedure: The in vivo antitumor activity of GemC18/PEG-C18 micelles was evaluated in C57BL/6 mice with subcutaneously inoculated B16-F10 cells (5.0×10^5/mouse) in the right flank. Treatments were given 6 days after tumor cell inoculation by tail vein injection with normal saline, Gemcitabine HCl (GemHCl) solution, GemC18 solution, blank PEG-C18 micelles, or GemC18/PEG-C18 micelles. The dose was 0.283 mg of GemHCl or molar equivalent amount of GemC18. All groups received a second dose three days after the first dose, while the GemC18/PEG-C18 micelle group also received a third dose 3 days after the second dose. Tumor sizes were measured with calipers in two perpendicular diameters every day and reported as tumor volume (V=½ [a×b^2], a=longer diameter, b=shorter diameter).
# PANC-1 cells = assay: In vitro cytotoxicity assay (MTT), 96 h, RRM2 over-expressing cells; type: cell-based, human; settings: for IC50: MTT, 96 h incubation, RRM2 over-expressing
# Excerpt: as §1, §2
# CCRF-CEM cells = assay: In vitro cytotoxicity assay (MTT), 72 h; type: cell-based, human; settings: 72 h incubation
# Excerpt: as §1, §2
# [1] = Solubility observations (DMSO, water); type: physicochemical; settings: for the in vitro cytotoxicity assay
# [2] = IC50 of gemcitabine HCl divided by that of the derivatives or derivatives in nanoparticles
Ratio of IC50 values in TC-1-GR cells (TC-1-GR cells; [2]),Compound,Ratio of IC50 in CCRF-CEM-AraC-8C to that in CCRF-CEM (CCRF-CEM-AraC-8C cells),Ratio of IC50 values in CEM-AraC-8C cells (CCRF-CEM-AraC-8C cells; [2]),IC50 (CCRF-CEM-AraC-8C cells) [µM],IC50 (CCRF-CEM/dCK−/− cells) [µM],IC50 (TC-1 cells) [µM],IC50 (MIA PaCa-2 cells) [µM],IC50 (TC-1-GR cells) [µM],B16-F10 tumor growth (tumor volume) (B16-F10 melanoma tumor),Ratio of IC50 in PANC-1 to that in MIA PaCa-2 (PANC-1 cells),IC50 (PANC-1 cells) [µM],IC50 (CCRF-CEM cells) [µM],solubility in DMSO [1]
5,"CCCCCCCCCCCCCCCCCC(=O)Nc1ccn([C@@H]2OC(CO)C(O)C2(F)F)c(=O)n1 (stereo partly shown) [GemC18, 4-N-stearoyl gemcitabine]",19,2.7,0.369 ± 0.235,47.3 ± 8.7,0.132 ± 0.0172,0.133 ± 0.0604,7.7 ± 2.4,not significant different from that in mice that received normal saline,45,6 ± 1.1,0.0194 ± 0.0133,
,"CCCCCCCCCCCCCCCCCC(=O)OCC(Cl)COP(=O)(O)OC[C@H]1O[C@@H](n2ccc(N)nc2=O)C(F)(F)[C@@H]1O (mixture of isomers) [Compound 12, 2′-2′-difluoro-2′-deoxycytidine 5′(3-stearoyloxy-2-rac-chloropropyl)phosphate]",,,1.77 ± 0.533,,0.43 ± 0.0524,0.245 ± 0.038,76.3 ± 10.5,,,58.7 ± 14.2,0.0498 ± 0.0059,
,"CCCCCCCCCCCCCCCCCCOP(=O)(O)OC[C@H]1O[C@@H](n2ccc(NC(C)=O)nc2=O)C(F)(F)[C@@H]1O [Compound 9, 4-N-acetyl-2′-2′-difluoro-2′-deoxycytidine-5′-octadecylphosphate]",,,0.575 ± 0.0971,,0.211 ± 0.085,0.205 ± 0.0395,9.3 ± 2.5,,,38.5 ± 5.7,0.0581 ± 0.0185,
,"CCCCCCCCCCCCCCCCCC(=O)Nc1ccn([C@@H]2O[C@H](COP(=O)(O)O)C(O)C2(F)F)c(=O)n1 (stereo in doubt) [Compound 13, 4-N-Octadecanoyl-2′-2′-difluoro-2′-deoxycytidine 5′-sodiumphosphate]",,,,,,,,,,,,not sufficiently solubilized in DMSO
